# Measured values taken from article PMC12089418, “Quantifying VMAT2 target occupancy at effective valbenazine doses and comparing to a novel VMAT2 inhibitor: a translational PET study” (Neuropsychopharmacology, 2025).
# pKi: −log10 of the molar value. Like-named read-outs stand apart in the source and are kept apart here.
# Tests used:
# VMAT2 [1] = target: T1, VMAT2 (Macaca fascicularis, UniProt A0A2K5UVB8); assay: [18F]AV-133 baseline PET test-retest; assay type: in vivo, cynomolgus macaques; details: 2 NHPs, caudate and putamen, baseline scans ~5 months apart
# Description: Test-retest variability of BPND in the caudate and putamen were calculated as3 TRTV%=100xBPND1−BPND2/(BPND1+BPND2)/2
# Target sequence in this assay (A0A2K5UVB8 entry or part of it): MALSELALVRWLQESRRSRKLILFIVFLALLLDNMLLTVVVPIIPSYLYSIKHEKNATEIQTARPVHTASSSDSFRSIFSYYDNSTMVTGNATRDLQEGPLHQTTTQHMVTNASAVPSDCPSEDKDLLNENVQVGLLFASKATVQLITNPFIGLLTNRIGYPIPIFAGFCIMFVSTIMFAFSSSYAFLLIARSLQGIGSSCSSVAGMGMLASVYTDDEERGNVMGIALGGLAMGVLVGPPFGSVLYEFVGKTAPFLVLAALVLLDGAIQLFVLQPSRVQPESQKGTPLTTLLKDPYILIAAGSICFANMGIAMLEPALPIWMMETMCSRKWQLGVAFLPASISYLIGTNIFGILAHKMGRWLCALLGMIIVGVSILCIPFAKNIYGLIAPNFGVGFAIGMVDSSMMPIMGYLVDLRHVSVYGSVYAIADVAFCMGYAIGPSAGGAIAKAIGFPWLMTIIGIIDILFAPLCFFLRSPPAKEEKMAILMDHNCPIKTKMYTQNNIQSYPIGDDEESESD
# TD patients = test system: TD patients; design: method as in PMID 28320223; details: 6 weeks, cited from earlier work
# [2] = test system: chorea associated with Huntington’s Disease; design: method as in PMID 37210099; details: valbenazine 80 mg; cited from earlier work
# VMAT2 [3] = details: cited from earlier work
# VMAT2 [4] = target: T2, VMAT2 (Homo sapiens, UniProt Q05940); assay: Estimated human VMAT2 %TO from human PK and NHP PET free EC50; assay type: in vivo; design: from tissue; host or cells: brain of healthy male volunteers (caudate, putamen)
# Description: (§1) Valbenazine human plasma exposure metrics in patients were estimated with a population pharmacokinetic (PK) analysis and plasma protein binding (PPB) data. […] These steady-state concentrations, in conjunction with free EC50 from NHP PET for blocking compounds was used to estimate %TO in humans. Plasma concentrations of NBI-750142 following 60 mg BID dose were estimated using plasma concentrations following a single oral dose of 60 mg NBI-750142 using the principle of superposition.
# [5] = Plasma protein binding by equilibrium dialysis, cynomolgus monkey plasma; assay type: in vitro ADME, cynomolgus monkeys; details: both sexes, pooled plasma, read-out: fraction unbound in plasma (fu_p)
# VMAT2 [6] = target: T3, VMAT2 (Rattus norvegicus, UniProt Q01827); assay: Rat NBI-98782 PK-%TO study; assay type: in vivo; details: Data on file
# T3 construct: from tissue; host or cells: rats dosed in vivo; tissue and read-out method not described
# VMAT2 [7] = target: T1, VMAT2; design: method as in PMID 32122751; details: bolus administration; radioligand [+]-α-[11C]dHTBZ; cited from earlier work
# Target sequence in this assay (A0A2K5UVB8 1-517): as the sequence (A0A2K5UVB8 entry or part of it) above
# other targets = test system: other targets; design: method as in PMID 28776237, PMID 28404690, PMID 29680151; details: cited from earlier work
# VMAT2 [8] = target: T1, VMAT2; assay: NHP [18F]AV-133 PET target occupancy; assay type: in vivo, cynomolgus macaques; details: for EC50: Emax model
# Description: Each NHP PET study enrolled two to three cynomolgus macaques, (3.8–9 year age range).
# NHPs fasted overnight before individual PET scans. For the NBI-750142 study, 60 min prior to NBI-750142 or vehicle administration, animals were sedated with an intramuscular injection of 2 mg/kg Aflaxan, 0.02 mg/kg dexmedetomidine, and 0.3 mg/kg midazolam. The animals were intubated with an endotracheal tube for continued delivery of oxygen (1.5–2.5 L) and 1.0–2.5% isoflurane for anesthesia maintenance.
# The animals were intubated with an endotracheal tube for continued delivery of isoflurane for anesthesia maintenance.
# For all NHP PET scans, blocking compound was administered with a bolus loading dose, followed by constant intravenous infusion over 3 h, with the goal of achieving steady-state plasma exposure. One hour after blocking compound or vehicle administration, [^18F]AV-133 was administered as an intravenous bolus. Dynamic PET data were acquired with a MicroPET Focus-220 camera (Siemens Microsystems, Knoxville, TN) for 120 min post injection and reconstructed into a series of 33 frames and all standard corrections were applied for normalization, randoms, scatter, and attenuation. Brain PET images were analyzed using PMOD software package v3.802 (PMOD Technologies, Zurich, Switzerland). […]
# During each scan, 1 mL whole blood PK samples were collected (in K2 EDTA tubes) at multiple time points. Blocking compound concentration in plasma samples were analyzed using validated LC-MS/MS bioanalytical methods. […] The average plasma concentration, Cave, was calculated as the mean compound concentration of samples collected during the PET scan and used for PK-TO analysis.
# Time-activity curves were generated for the caudate, putamen, and cerebellum. Non-displaceable binding potential (BPND) was estimated using non-invasive Logan graphical analysis with cerebellum as reference region. %TO of the blocking compound was calculated in the caudate and putamen using baseline and post-dose BPND as follows:1 %TO=1−BPNDpost−block/BPNDbaselinex100 […]
# Target sequence in this assay (A0A2K5UVB8 entry or part of it): as above
# [9] = Plasma protein binding by equilibrium dialysis, human plasma; assay type: in vitro ADME, humans; details: both sexes, pooled plasma, read-out: fraction unbound in plasma (fu_p)
# VMAT2 [10] = target: T1, VMAT2; assay: In vitro Ki for affinity to VMAT2, NHP; assay type: binding
# Target sequence in this assay (A0A2K5UVB8 1-517): as the sequence (A0A2K5UVB8 entry or part of it) above
# VMAT2 [11] = target: T2, VMAT2; assay: In vitro Ki for affinity to VMAT2, human; assay type: binding
# Text: Ki values for compound affinity to VMAT2 were generated from human platelet homogenates as described in [18].
# [12] = Human steady-state plasma exposure (population PK / superposition); assay type: in vivo; details: 60 mg NBI-750142 BID
# Description: as §1
# VMAT2 [13] = target: T2, VMAT2; assay: Human [18F]AV-133 PET target occupancy; assay type: in vivo; design: from tissue; host or cells: brain of healthy male volunteers (caudate, putamen); details: for URF (upregulation factor): upregulation model
# Text: The human PET study was approved by the IRB (Approval number: Pro00037529). All participants gave their written informed consent prior to participation in the study. Twelve healthy male subjects were enrolled in cohorts of 2–4 subjects each. Subjects were 29–54 years of age (mean of 43.2 years), and the study had standard inclusion/exclusion criteria, with attention to avoiding drugs which may interfere with the [^18F]AV-133 measurements or with NBI-750142 metabolism.
# Subjects fasted during the study and received a small, predefined snack at least 2 h prior to oral dosing of NBI-750142. Consumption of alcohol, caffeine, nicotine or cannabis products, and grapefruit or grapefruit juice was prohibited during the study. One PET scan occurred ~1.5 h following administration of NBI-750142, and a second ~18 h post NBI-750142. These scans are referred to as “T1” and “T2,” respectively, throughout this study (Supplementary Fig. 1). T1 scans were timed to occur at approximately the time to reach maximal plasma concentration, Tmax, and provide the closest comparison to the NHP PET measurements. T2 scans should contribute data points to the lower NBI-750142 concentration portion of the PK-%TO curve and potentially reveal dose-response hysteresis (reviewed in ref. [22]). A total of five cohorts were enrolled in the study in an adaptive design, with two subjects enrolled in each cohort, except for four subjects in cohort 5. NBI-750142 doses in these cohorts ranged from 10 to 200 mg. Blood samples were obtained from each participant immediately before [^18F]AV-133 injection and just before the end of the PET scan in order to quantify plasma concentration of NBI-750142. The Cave derived from these two values was used to compare against %TO.
# Prior to the radiotracer injection and PET, a low-dose CT scan was collected for attenuation correction. Subjects were administered a single dose of [^18F]AV-133 intravenously over 3 min using an infusion pump (~3.33 mL per min) through a venous catheter followed by a 10 mL saline flush. Dynamic PET imaging of the brain was acquired over 120 min following radiotracer injection on a Siemens Biograph 6 PET/CT camera with the following frame times: 6 × 30 s, 4 × 1 min, 4 × 2 min, 21 × 5 min (0–120 min). Images were reconstructed with a 168 × 168 × 81 matrix (pixel size of 2.03 mm × 2.03 mm) using an iterative reconstruction algorithm (OSEM 4 iterations, 16 subsets) and a post hoc Gaussian filter FWHM = 3 mm. Standard corrections for random, scatter, system dead time, and attenuation provided by the camera manufacturer were performed. A T1 MRI scan was acquired from eligible subjects as part of the screening visit, to identify and delineate brain anatomical regions of interest for individual PET images. MRI scans were obtained on a Siemens Espree 1.5 Tesla clinical magnet.
# Reconstructed PET images were motion and decay corrected, realigned to the subject MRI and subsequently normalized into standard MNI (Montreal Neurological Institute) space using PMOD. Volumes of interest (VOIs) were defined from a template (Hammers, N30R83). Average activity concentration within each VOI was determined and time activity curves (TACs) were generated. TACs were extracted from the following VOIs: caudate and putamen (striatum), and occipital cortex. BPND, the primary outcome measure, was estimated with noninvasive Logan graphical analysis […] 1. The relationship between %TO (averaged between caudate and putamen) and average plasma concentration during the scan was analyzed with an Emax model (Eq. 2) and an upregulation model (Eq. 4), which incorporates an upregulation factor (URF; [24]).4 %TO=Drug−EC50Drug/Drug+EC50(URF−1)/Drug+EC50
# [14] = 40 mg VBZ QD, from free NBI-98782 and NHP PET EC50
# [15] = 80 mg VBZ QD, from free NBI-98782 and NHP PET EC50
# [16] = estimated from single 60 mg oral dose by superposition
# [17] = 60 mg NBI-750142 BID, NHP PET free EC50 6.7 ng/mL
# T2 sequence (Q05940 whole entry): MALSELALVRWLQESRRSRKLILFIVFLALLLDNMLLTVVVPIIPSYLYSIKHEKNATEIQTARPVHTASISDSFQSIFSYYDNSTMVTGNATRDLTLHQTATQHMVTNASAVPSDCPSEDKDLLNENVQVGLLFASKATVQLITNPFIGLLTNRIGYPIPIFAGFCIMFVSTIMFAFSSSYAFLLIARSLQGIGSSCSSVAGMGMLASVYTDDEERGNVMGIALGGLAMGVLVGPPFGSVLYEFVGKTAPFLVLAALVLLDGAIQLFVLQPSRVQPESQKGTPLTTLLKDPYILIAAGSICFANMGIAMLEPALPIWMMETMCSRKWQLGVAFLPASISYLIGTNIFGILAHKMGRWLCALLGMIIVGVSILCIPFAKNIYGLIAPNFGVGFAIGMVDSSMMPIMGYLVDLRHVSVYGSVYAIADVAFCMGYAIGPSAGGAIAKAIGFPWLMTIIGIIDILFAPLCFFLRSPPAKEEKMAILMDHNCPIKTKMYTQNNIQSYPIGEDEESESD
# T3 sequence (Q01827 whole entry): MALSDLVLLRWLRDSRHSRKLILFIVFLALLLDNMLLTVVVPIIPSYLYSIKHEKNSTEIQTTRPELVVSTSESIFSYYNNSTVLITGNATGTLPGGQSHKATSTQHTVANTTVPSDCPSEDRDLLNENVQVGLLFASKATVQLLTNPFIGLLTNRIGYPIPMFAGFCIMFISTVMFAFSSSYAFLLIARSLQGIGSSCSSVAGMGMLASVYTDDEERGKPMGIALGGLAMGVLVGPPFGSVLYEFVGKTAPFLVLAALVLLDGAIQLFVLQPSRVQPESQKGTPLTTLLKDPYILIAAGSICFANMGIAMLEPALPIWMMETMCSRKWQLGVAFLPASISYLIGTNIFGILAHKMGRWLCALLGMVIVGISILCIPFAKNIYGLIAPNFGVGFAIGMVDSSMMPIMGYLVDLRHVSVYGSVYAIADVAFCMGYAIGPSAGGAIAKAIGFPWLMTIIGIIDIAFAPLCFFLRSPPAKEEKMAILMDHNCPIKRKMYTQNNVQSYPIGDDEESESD
structure (smiles),measurement,setting,value
COc1cc2c(cc1OCCC[18F])CCN1C[C@@H](CC(C)C)[C@H](O)C[C@H]21 [[^18F]AV-133],test-retest variability of baseline BPND,VMAT2 [1],< 10%
COc1cc2c(cc1OC)[C@H]1C[C@@H](OC(=O)[C@@H](N)C(C)C)[C@H](CC(C)C)CN1CC2 [valbenazine],"Cohen's d, AIMS score reduction",TD patients; valbenazine 40 mg once daily oral,0.5
same,patients with robust AIMS response (>50% reduction from baseline),TD patients; valbenazine 40 mg,24%
same,"Cohen's d, AIMS score reduction",TD patients; valbenazine 80 mg once daily oral,0.9
same,patients with robust AIMS response (>50% reduction from baseline),TD patients; valbenazine 80 mg,40%
same,"Cohen's d, chorea",[2],0.9
same,potency at VMAT2 relative to NBI-98782 (fold less potent),VMAT2 [3]; parent compound vs active metabolite,~ 40 fold
same,VMAT2 %TO at Cavg,VMAT2 [4]; [14],~ 80%
same,VMAT2 %TO at Cmax,VMAT2 [4]; [14],82%
same,VMAT2 %TO at Ctrough,VMAT2 [4]; [14],73%
same,VMAT2 %TO at Cavg,"VMAT2 [4]; 40 mg VBZ QD, from free NBI-98782 and NHP PET EC50, listed as VBZ",79%
same,VMAT2 %TO at Cavg,VMAT2 [4]; [15],89%
same,VMAT2 %TO at Cmax,VMAT2 [4]; [15],91%
same,VMAT2 %TO at Ctrough,VMAT2 [4]; [15],above 85%
same,VMAT2 %TO at Ctrough,"VMAT2 [4]; 80 mg VBZ QD, from free NBI-98782 and NHP PET EC50, listed as VBZ",85%
same,VMAT2 %TO estimations at steady state,"VMAT2 [4]; 80 mg valbenazine daily, Ctrough to Cmax",~ 90%
same,VMAT2 occupancy achieved by once daily valbenazine treatment,VMAT2 [4]; 40 and 80 mg once daily,80–90%
"COc1cc2c(cc1OC)C1CC(O)C(CC(C)C)CN1CC2 (stereo not drawn) [NBI-98782, (+)-α-dHTBZ (dihydrotetrabenazine)]",fraction unbound,[5],0.4
same,"NBI-98782 PK-%TO relationship, valbenazine-dosed vs NBI-98782-dosed rats",VMAT2 [6],nearly identical
same,ED50 (dose vs VMAT2 occupancy),VMAT2 [7],0.055 mg/kg
same,potency at VMAT2,VMAT2 [3],nanomolar potency
same,inhibition of other targets,other targets,minimal to non-detectable inhibition
COc1cc2c(cc1OC)[C@H]1CN(C)[C@H](CC(C)(C)C)CN1CC2 [NBI-750142],EC50:Ki Ratio,"VMAT2 [8]; NHP, free PET EC50 over in vitro Ki",1.1
same,EC50,"VMAT2 [8]; total compound Cave during 120-min scan, read-out: EC50 (average total plasma concentration vs %TO) (converted)",0.0331 µM
same,EC50,"VMAT2 [8]; total concentration multiplied by fu_p, read-out: free EC50 (free plasma concentration vs %TO) (converted)",0.0202 µM
same,fraction unbound,[5],0.59
same,fraction unbound,[9],0.5
same,pKi,VMAT2 [10],7.74
same,pKi,VMAT2 [11],7.56
same,"Cavg, total",[12]; [16],27.7 ng/mL
same,"Cmax, total",[12]; [16],48.1 ng/mL
same,"Ctrough, total",[12]; [16],7.6 ng/mL
same,"Cavg, free",[12]; total x fu_p,13.9 ng/mL
same,"Cmax, free",[12]; total x fu_p,24.1 ng/mL
same,"Ctrough, free",[12]; total x fu_p,3.8 ng/mL
same,EC50:Ki Ratio,"VMAT2 [13]; Human, free PET EC50 over in vitro Ki",1.4
same,EC50,"VMAT2 [13]; T1 and T2, occipital cortex reference, read-out: EC50, Emax model (converted)",0.105 µM
same,URF (upregulation factor),"VMAT2 [13]; T1 and T2, white matter reference",1.9
same,EC50,"VMAT2 [13]; T1 and T2, white matter reference (post hoc), read-out: EC50, Emax model (converted)",0.0932 µM
same,EC50,"VMAT2 [13]; T1 and T2, white matter reference (post hoc), read-out: EC50, upregulation model (converted)",0.0331 µM
same,EC50,"VMAT2 [13]; T1 and T2 data, occipital cortex reference, read-out: EC50, upregulation model (converted)",0.0189 µM
same,URF (upregulation factor),"VMAT2 [13]; T1 and T2 data, occipital cortex reference",2.8
same,EC50,"VMAT2 [13]; T1 scans (~[…] post oral dose), Emax model, occipital cortex reference, read-out: total EC50 (average total plasma concentration vs %TO) (converted)",0.0758 µM
same,EC50,"VMAT2 [13]; T1 scans, Emax model, WM-derived BPND (post hoc), read-out: total EC50, white matter reference (converted)",0.0746 µM
same,EC50,"VMAT2 [13]; T1 scans, Emax model, total concentration multiplied by fu_p, read-out: free EC50 (free plasma concentration vs %TO) (converted)",0.0379 µM
same,VMAT2 occupancy at T2,"VMAT2 [13]; T2 scans ~18 h post NBI-750142, occipital cortex reference",negative occupancy
same,average striatal occupancy at T2,"VMAT2 [13]; T2 time points (~18 h post dose), WM-derived values",0.09%
same,VMAT2 %TO estimations,"VMAT2 [4]; 60 mg NBI-750142 BID (acceptable doses), Ctrough to Cmax",36–78%
same,VMAT2 %TO at Cavg,VMAT2 [4]; [17],67%
same,VMAT2 %TO at Cmax,VMAT2 [4]; [17],78%
same,VMAT2 %TO at Ctrough,VMAT2 [4]; [17],36%
